Laboratory results from patent US10647690B2, “2,3-epoxy succinyl derivative, preparation method and use thereof” (Institute of Pharmacology and Toxicology Academy of …, priority 2016, dated 2020).
Where two headings read alike, the source gives them in different places.

What was measured:
Cathepsin K = target: T1, Cathepsin K (Homo sapiens, UniProt P43235); test: Preliminary screening of Cathepsin K (Cathepsin K Inhibitor Screening Kit K150-100, Biovision); assay type: biochemical; conditions: relative inhibition rate vs 10 μM FF-FMK control
T1 construct: purchased Biovision K150-100
T1 sequence (P43235 115-329): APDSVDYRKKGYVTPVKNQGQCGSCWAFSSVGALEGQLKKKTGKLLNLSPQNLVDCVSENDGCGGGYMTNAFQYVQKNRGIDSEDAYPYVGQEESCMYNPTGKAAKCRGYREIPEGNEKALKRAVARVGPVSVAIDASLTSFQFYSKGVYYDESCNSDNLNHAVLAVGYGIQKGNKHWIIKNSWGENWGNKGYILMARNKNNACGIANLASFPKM
Method in brief: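 Percent inhibition was derived from kinetic slopes (ΔRFU/Δt, ex 400/em 505 nm, 120 min at 37 °C), normalized between an uninhibited enzyme control and 10 μM FF-FMK. Compounds were added from 100 μM or 10 μM working solutions (10% DMSO) to Cathepsin K and preincubated 15 min at 25 °C before substrate.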

Cathepsin S = target: T2, Cathepsin S (Homo sapiens, UniProt P25774); test: IC50 determination against Cathepsin S (Biovision kit K149-100); assay type: biochemical; conditions: CTSS
T2 construct: purchased Biovision K149-100
Procedure: 2. Method for determining IC50 of compounds against cathepsin:
IC50 of compounds against Cathepsin S was determined by using Cathepsin S Inhibitor Screening Kit (Product No. K149-100) from Biovision Company.
2.1.1.4 Preparation of Cathepsin S solution: Cathepsin S enzyme (46 μl) was added to Cathepsin S buffer (2254 μl), and mixed well, to prepare Cathepsin S enzyme solution with a volume of 2.3 ml, which was placed on ice for further use.
2.1.2 Preparation of compound solutions: 30 mM and 10 mM compound stock solutions, and control compounds were gradiently diluted in DMSO at a ratio of 1:3, wherein the maximum dilution fold was 19683; the gradiently diluted compound solution (3 μl) was added to Cathepsin K, B, L, and S buffer (27 μl), respectively, and mixed well, wherein the control compounds (FF-FMK, F-F-FMK, FF-FMK and Z-FF-FMK) were at the concentrations of 66.67, 22.22, 7.41, 2.47, 0.82, 0.27, 0.091, 0.03, 0.01, 0.0034 and 0 μM, respectively, the test compounds were at the concentrations of 1000, 333.3, 111.1, 37, 12.3, 4.1, 1.4, 0.46, 0.15, 0.05 and 0 μM, respectively, and the final concentration of DMSO was 10%.
2.1.3.4 Cathepsin S: Cathepsin S substrate (90 μl) was added to Cathepsin S buffer (1710 μl), and mixed well, to prepare Cathepsin S substrate solution with a volume of 1.8 ml, which was placed on ice for further use.
Method for screening cathepsin inhibitors: the cathepsin solution (prepared in Item 2.1.1) was added to a 384-well plate (ProxiPlate-384 Plus, Perkinelmer) at 10 μl/well, and centrifuged at 1000 rpm for Imin; the compound solution (prepared in Item 2.1.2) was then added at 2 μl/well, and every concentration was repeated in two wells; the final concentrations of the test compounds were 100, 33.3, 11.1, 3.7, 1.23, 0.41, 0.14, 0.046, 0.015, 0.005 and 0 μM, respectively, wherein the final concentration of DMSO was 1%; after centrifugation at 1000 rpm for 1 min, the plate was put in a 25° C. incubator for 15 min; the cathepsin substrate solution was then added at 8 µl/well, and centrifuged at 1000 rpm for 1 min; and finally, the fluorescence signal was read in Enspire, wherein the exciting light was at a wavelength of 400 nm, the emitting light was at a wavelength of 505 nm, and continuous reading was performed at 37° C. for 120 min.
Data analysis: the slope (S) for all the samples was calculated by ΔRFU(RFU2−RFU1) and time ΔT(T2−T1), including negative control (Enzyme Control, EC) and positive control (Inhibitor Control, IC: 10 μM (FF-FMK, F-F-FMK, FF-FMK and Z-FF-FMK), and the calculation formula was as followed: Relative inhibition rate %=(SEC−SS)/(SEC−SIC)*100. The IC50 for each compound was obtained by means of fitting by software GraphPad Prism 5.0.

[1] = 1 μM compound, replicate 1, read-out: Inhibition % (1 μM) replicate 1
[2] = 1 μM compound, replicate 2, read-out: Inhibition % (1 μM) replicate 2
[3] = 10 μM compound, replicate 1, read-out: Inhibition % (10 μM) replicate 1
[4] = 10 μM compound, replicate 2, read-out: Inhibition % (10 μM) replicate 2
[5] = Exp-1, read-out: IC50 (nM) Exp-1
[6] = Exp-2, read-out: IC50 (nM) Exp-2
[7] = average of Exp-1 and Exp-2, read-out: Ave of IC50

T2 sequence (P25774 115-331): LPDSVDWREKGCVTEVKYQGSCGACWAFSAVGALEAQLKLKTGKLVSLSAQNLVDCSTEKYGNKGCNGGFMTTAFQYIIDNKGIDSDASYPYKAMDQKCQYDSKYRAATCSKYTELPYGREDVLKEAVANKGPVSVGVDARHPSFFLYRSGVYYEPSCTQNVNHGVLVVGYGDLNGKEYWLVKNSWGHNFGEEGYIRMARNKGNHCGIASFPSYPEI

inhibition at 1 µM (Cathepsin K; [1]) [%]	inhibition at 1 µM (Cathepsin K; [2]) [%]	inhibition at 10 µM (Cathepsin K; [3]) [%]	inhibition at 10 µM (Cathepsin K; [4]) [%]	IC50 (Cathepsin S; [5]) [nM]	IC50 (Cathepsin S; [6]) [nM]	IC50 (Cathepsin S; [7]) [nM]	Inhibition % (1 μM) replicate 1 (Cathepsin K; 1 μM compound, replicate 1) [%]	Inhibition % (1 μM) replicate 2 (Cathepsin K; 1 μM compound, replicate 2) [%]	Inhibition % (10 μM) replicate 1 (Cathepsin K; 10 μM compound, replicate 1) [%]	Inhibition % (10 μM) replicate 2 (Cathepsin K; 10 μM compound, replicate 2) [%]	Compound
90.9	89.5	91.3	95.7	4080	4140	4110					CCCCCCNC(=O)[C@H](CCSC)NC(=O)[C@H]1O[C@@H]1C(=O)OCC [Compound 5, (2s, 3s)-2-ethoxycarbonyl-3-[2-[(s)-4-methylthio-1-carbonyl-1-(hexylamino)butane]formylamino]epoxysuccinic acid]
				753	571	662	85.73	87.75	90.96	98.34	CCOC(=O)[C@H]1O[C@@H]1C(=O)N[C@@H](CC(C)C)C(=O)NCCC(C)C [zxy-37, E64d, reference compound]
80.5	78.9	96.9	94.1	10600	9450	10000					CCOC(=O)[C@H]1O[C@@H]1C(=O)N[C@@H](CCSC)C(=O)NCCCc1ccccc1 [Compound 8, (2s, 3s)-2-ethoxycarbonyl-3-[2-[(s)-4-methylthio-1-carbonyl-1-(3-phenylpropylamino)butane]formylamino]epoxysuccinic acid]
88.6	90.8	94.4	95.7	1600	1660	1630					CCOC(=O)[C@H]1O[C@@H]1C(=O)N[C@@H](CCSC)C(=O)NCCc1cccc(F)c1 [Compound 34, (2s, 3s)-2-ethoxycarbonyl-3-[2-[(s)-4-methylthio-1-carbonyl-1-(3-fluorophenylethylamino)butane]formylamino]epoxysuccinic acid]
81.5	85.2	97.3	99.5	5110	8750	6930					CCOC(=O)[C@H]1O[C@@H]1C(=O)N[C@@H](CCSC)C(=O)NC(CC)CC [Compound 39, (2s, 3s)-2-ethoxycarbonyl-3-[2-[(s)-4-methylthio-1-carbonyl-1-(1-ethylpropylamino)butane]formylamino]epoxysuccinic acid]
85.5	89.1	91.1	94.9	834	1510	1170					CCOC(=O)[C@H]1O[C@@H]1C(=O)N[C@@H](CCSC)C(=O)NCCCCc1ccccc1 [Compound 40, (2s, 3s)-2-ethoxycarbonyl-3-[2-[(s)-4-methylthio-1-carbonyl-1-(4-phenylbutylamino)butane]formylamino]epoxysuccinic acid]
99.7	98.9	108	106	1900	957	1430					CCOC(=O)[C@H]1O[C@@H]1C(=O)N[C@@H](CCSC)C(=O)N1CCC(c2ccccc2)CC1 [Compound 13, (2s, 3s)-2-ethoxycarbonyl-3-[2-[(s)-4-methylthio-1-carbonyl-1-(phenylpiperidinyl)butane]formylamino]epoxysuccinic acid]
